Test results from patent publication US9517243B2, “Beta-mannosylceramide and stimulation of NKT cell anti-tumor immunity” (The United States of America, as represented by the …, priority 2010, dated 2016).

Tests used:
[1] = tested on: CT26 lung metastasis; assay: In vivo lung metastasis assay, CT26 colon carcinoma; parameters: species or system BALB/c mice; settings: for Rank order of tumor protection: dose of 50 pmoles, FIG. 2D
Description: In vivo lung metastasis assay. 5×10^5 CT26 cells in 0.2 ml PBS were injected i.v. into the tail vein. Glycolipid or vehicle control (0.00025% Tween 20) was injected i.p. (in 0.2 ml PBS) within one hour after tumor challenge. Mice were sacrificed 12-16 days after tumor challenge, and lungs were stained and fixed and metastases were enumerated as previously described (Park, J. M., et al., International J. of Cancer, 114:80-87 (2004)). The same protocol was used for the B16F10 cell line, except that lungs were perfused with PBS instead of ink before removal.
For CD8^+T and NK cell depletion, mice were treated with anti-CD8 (200 μg/injection), anti-asialo GM1 (25 μl/injection), or control antibodies 1 day prior to tumor challenge, the day of challenge, and 5 and 10 days following tumor challenge. CD8^+T and NK cell depletion of >90% was confirmed by flow cytometric staining for CD8 (clone 53-6.7, BD Biosciences, Rockville, Md.) and pan-NK cell marker (clone DX5, eBioscience, San Diego, Calif.) at the conclusion of the experiment. For Gr-1^+ cell depletion, mice were injected i.p. with 100, 50, or 1 μg anti-Gr-1 antibody, 16 and 40 hours after tumor challenge. CD11b^+Gr-1^high cell depletion of >99% and CD11b^+Gr-1^intermediate cell depletion of >80% by 100 μg of anti-Gr-1 antibodies, was confirmed by flow cytometric staining for CD11b (clone M1/70, eBioscience), Gr-1 (clone RB6-8C5, BD Biosciences), Ly-6C (clone AL-21, BD Biosciences) and Ly6G. (clone 1A8, BD Biosciences). Where indicated, mice received 0.2 mg L-NAME or D-NAME i.p. twice per day on the day of tumor challenge, the day after tumor challenge, and once daily for 2 weeks after tumor injection. Blockade of TNF-α was achieved by administration of 100 μg of etanercept every other day, beginning immediately following tumor challenge, per the method of Fichtner-Feigl, S., et al., Cancer Res., 68:3467-3475 (2008). For PPARγ inhibition, mice were treated 0.15 mg/ml GW9662 (200 μL i.p.) or vehicle control (0.5% DMSO in PBS) immediately following tumor challenge, and then 30 minutes prior to glycolipid administration, via the method of Coste, A., et al., J. Immunol., 180:4939-4947 (2008).

[2] = tested on: IFN-γ, IL-4, IL-13, IL-12 (p70), and TNF-α in plasma; assay: In vivo cytokine assay (plasma, multiplex); parameters: species or system BALB/c mice; settings: 50 pmoles i.p., 0-24 hours
Description: FIGS. 8A-8E show graphs where the cytokine production induced by the glycolipid panel was tested in vivo. BALB/c mice were challenged with CT26 (5×10^5) i.v. followed by 50 pmoles of glycolipid or vehicle control i.p. at time 0. Mice were bled retroorbitally at 0, 3, 6, 12, and 24 hours, and the amount of IFN-γ (8A), TNF-α (8B), IL-4 (8C), IL-12 (p70) (8D), and IL-13 (8E) in plasma was determined. Each data point represents mean±SD of triplicates. […] Little cytokine production was detected following OCH and AH04-2 administration. β-ManCer induced very little cytokine production except for some IL-12 and TNF-α.
In vivo cytokine assay. The concentration of IFN-γ, IL-4, IL-13, IL-12 (p70), and TNF-α in plasma samples was determined by MILLIPLEX cytokine multiplex immunoassay kit (Millipore, Billerica, Mass.) using a Bio-Plex system (Bio-Rad, Hercules, Calif.) according to manufacturer's instructions.

[3] = tested on: BALB/c splenocytes; assay: In vitro cytokine assay (ELISA); type: cell-based, BALB/c mice; settings: 48 hours, ELISA; for IFN-γ production in vitro: FIG. 7A; for IL-4 production in vitro: FIG. 7B; for IL-13 production in vitro: FIG. 7C
Description: In vitro cytokine assay. Splenocytes (8×10^5/well of 96 well plates) from BALB/c mice were stimulated with glycolipid or solvent control for 48 hours. Supernatants were collected, and the concentration of IFN-γ, IL-4, or IL-13 was determined by ELISA.

Row | SMILES | Tumor protection in IFN-γ knockout mice ([1]; IFN-γ−/− BALB/c, 50 pmoles, FIG. 9A) | Effect of NOS inhibition (L-NAME vs D-NAME) on tumor protection ([1]; WT mice, 50 pmoles glycolipid, 0.2 mg L-NAME i.p., FIG. 6, 10A) | Rank order of tumor protection [1] | IL-4 in plasma ([2]; FIG. 8C) | IL-13 in plasma ([2]; FIG. 8E) | IFN-γ production in vitro [3] | IL-4 production in vitro [3] | IL-13 production in vitro [3] | Cytokine production in vivo (overall) [2]
1 | CCCCC/C=C\C/C=C\CCCCCCCCCC(=O)N[C@@H](CO[C@H]1O[C@H](CO)[C@H](O)[C@H](O)[C@H]1O)[C@H](O)[C@H](O)CCCCCCCCCCCCCC [C20:2, reference compound] | completely failed to induce any tumor protection | no effect | similarly protective | increased | increased | lower IFN-γ level | higher amounts | higher amounts | –
2 | CCCCCCCCCCCCCCCCCCCCCCCC(=O)N[C@@H](COC1OC(CO)C(O)C(O)C1O)[C@H](O)[C@H](O)CCCCC (stereo partly shown) [OCH] | – | – | significantly less tumor killing | – | – | lower IFN-γ level | higher amounts | higher amounts | Much less cytokine production
